Measurements published in US20210045385A1, “PYRIDAZINONE-SUBSTITUTED KETOXIMES AS HERBICIDES” (FMC Corporation, priority 2018, published 2021).

Experiments:
Format in all cases: in vivo
rice (Oryza sativa) = assay: Test B flooded paddy test, visual plant response rating; details: 250 g ai/ha, Flood, applied to paddy water, 2-leaf stage, evaluated after 13 to 15 days
Method: (§1) Plant species in the flooded paddy test selected from rice (Oryza sativa), sedge, umbrella (small-flower umbrella sedge, Cyperus difformis), ducksalad (Heteranhera limosa), and barnyardgrass (Echinochloa crus-galli) were grown to the 2-leaf stage for testing. At time of treatment, test pots were flooded to 3 cm above the soil surface treated by application of test compounds directly to the paddy water, and then maintained at that water depth for the duration of the test. Treated plants and controls were maintained in a greenhouse for 13 to 15 days, after which time all species were compared to controls and visually evaluated. […] A dash (-) response means no test result.

[1] = system: ducksalad (Heteranhera limosa); assay: as above; details: 250 g ai/ha, Flood, applied to paddy water, 2-leaf stage, evaluated after 13 to 15 days
Method: as §1

[2] = system: sedge, umbrella (small-flower umbrella sedge, Cyperus difformis); assay: as above; details: 250 g ai/ha, Flood, applied to paddy water, 2-leaf stage, evaluated after 13 to 15 days
Method: as §1

[3] = system: barnyardgrass (Echinochloa crus-galli); assay: as above; details: 250 g ai/ha, Flood, applied to paddy water, 2-leaf stage, evaluated after 13 to 15 days
Method: as §1

[4] = system: Italian ryegrass (Lolium multiflorum); assay: Test A preemergence, visual plant response rating; details: for Ryegrass, Italian plant response rating: 125 g ai/ha, preemergence, 0 to 100 scale, 0 no effect, 100 complete control; for Ryegrass, Italian plant response rating (0 to 100 scale): 500 g ai/ha Preemergence, approx. 10 days
Source text: (§2) Seeds of plant species selected from barnyardgrass (Echinochloa crus-galli), kochia (Kochia scoparia), ragweed (common ragweed, Ambrosia elatior), Italian ryegrass (Lolium multiflorum), foxtail, giant (giant foxtail, Setaria faberii), foxtail, green (green foxtail, Setaria viridis), and pigweed (Amaranthus retroflexus) were planted into a blend of loam soil and sand and treated preemergence with a directed soil spray using test chemicals formulated in a non-phytotoxic solvent mixture which included a surfactant.
(§3) At the same time, plants selected from these weed species and also wheat (Triticum aestivum), corn (Zea mays), blackgrass (Alopecurus myosuroides), and galium (catchweed bedstraw, Galium aparine) were planted in pots containing the same blend of loam soil and sand and treated with postemergence applications of test chemicals formulated in the same manner. Plants ranged in height from 2 to 10 cm and were in the one- to two-leaf stage for the postemergence treatment. Treated plants and untreated controls were maintained in a greenhouse for approximately 10 days, after which time all treated plants were compared to untreated controls and visually evaluated for injury. Plant response ratings, summarized in Table A, are based on a 0 to 100 scale where 0 is no effect and 100 is complete control. A dash (-) response means no test result.

[5] = system: foxtail, giant (giant foxtail, Setaria faberii); assay: Test A preemergence, visual plant response rating; details: for Foxtail, Giant plant response rating: 125 g ai/ha, preemergence, 0 to 100 scale, 0 no effect, 100 complete control; for Foxtail, Giant plant response rating (0 to 100 scale): 500 g ai/ha Preemergence, approx. 10 days
Source text: as §2, §3

kochia (Kochia scoparia) [6] = assay: Test A preemergence, visual plant response rating; details: for Kochia plant response rating: 125 g ai/ha, preemergence, 0 to 100 scale, 0 no effect, 100 complete control; for Kochia plant response rating (0 to 100 scale): 500 g ai/ha Preemergence, approx. 10 days
Source text: as §2, §3

[7] = system: pigweed (Amaranthus retroflexus); assay: Test A preemergence, visual plant response rating; details: for Pigweed plant response rating: 125 g ai/ha, preemergence, 0 to 100 scale, 0 no effect, 100 complete control; for Pigweed plant response rating (0 to 100 scale): 500 g ai/ha Preemergence, approx. 10 days
Source text: as §2, §3

[8] = system: barnyardgrass (Echinochloa crus-galli); assay: Test A preemergence, visual plant response rating; details: for Barnyardgrass plant response rating: 125 g ai/ha, preemergence, 0 to 100 scale, 0 no effect, 100 complete control; for Barnyardgrass plant response rating (0 to 100 scale): 500 g ai/ha Preemergence, approx. 10 days
Source text: as §2, §3

[9] = system: wheat (Triticum aestivum); assay: Test A postemergence, visual plant response rating; details: for Wheat plant response rating (0 to 100 scale): 500 g ai/ha, postemergence, 0 is no effect, 100 is complete control; for Wheat plant response rating: Postemergence, 125 g ai/ha, 0 to 100 scale (0 no effect, 100 complete control)
Source text: as §2, §3

[10] = system: galium (catchweed bedstraw, Galium aparine); assay: Test A postemergence, visual plant response rating; details: for Galium plant response rating (0 to 100 scale): 500 g ai/ha, postemergence, 0 is no effect, 100 is complete control; for Galium plant response rating: Postemergence, 125 g ai/ha, 0 to 100 scale (0 no effect, 100 complete control)
Source text: as §2, §3

[11] = system: ragweed (common ragweed, Ambrosia elatior); assay: Test A postemergence, visual plant response rating; details: for Ragweed plant response rating (0 to 100 scale): 500 g ai/ha, postemergence, 0 is no effect, 100 is complete control; for Ragweed plant response rating: Postemergence, 125 g ai/ha, 0 to 100 scale (0 no effect, 100 complete control)
Source text: as §2, §3

[12] = system: Italian ryegrass (Lolium multiflorum); assay: Test A postemergence, visual plant response rating; details: for Ryegrass, Italian plant response rating (0 to 100 scale): 500 g ai/ha, postemergence, 0 is no effect, 100 is complete control; for Ryegrass, Italian plant response rating: Postemergence, 125 g ai/ha, 0 to 100 scale (0 no effect, 100 complete control)
Source text: as §2, §3

[13] = system: foxtail, giant (giant foxtail, Setaria faberii); assay: Test A postemergence, visual plant response rating; details: for Foxtail, Giant plant response rating (0 to 100 scale): 500 g ai/ha, postemergence, 0 is no effect, 100 is complete control; for Foxtail, Giant plant response rating: Postemergence, 125 g ai/ha, 0 to 100 scale (0 no effect, 100 complete control)
Source text: as §2, §3

corn (Zea mays) = assay: Test A postemergence, visual plant response rating; details: for Corn plant response rating (0 to 100 scale): 500 g ai/ha, postemergence, 0 is no effect, 100 is complete control; for Corn plant response rating: Postemergence, 125 g ai/ha, 0 to 100 scale (0 no effect, 100 complete control)
Source text: as §2, §3

kochia (Kochia scoparia) [14] = assay: Test A postemergence, visual plant response rating; details: for Kochia plant response rating (0 to 100 scale): 500 g ai/ha, postemergence, 0 is no effect, 100 is complete control; for Kochia plant response rating: Postemergence, 125 g ai/ha, 0 to 100 scale (0 no effect, 100 complete control)
Source text: as §2, §3

[15] = system: pigweed (Amaranthus retroflexus); assay: Test A postemergence, visual plant response rating; details: for Pigweed plant response rating (0 to 100 scale): 500 g ai/ha, postemergence, 0 is no effect, 100 is complete control; for Pigweed plant response rating: Postemergence, 125 g ai/ha, 0 to 100 scale (0 no effect, 100 complete control)
Source text: as §2, §3

[16] = system: blackgrass (Alopecurus myosuroides); assay: Test A postemergence, visual plant response rating; details: for Blackgrass plant response rating (0 to 100 scale): 500 g ai/ha, postemergence, 0 is no effect, 100 is complete control; for Blackgrass plant response rating: Postemergence, 125 g ai/ha, 0 to 100 scale (0 no effect, 100 complete control)
Source text: as §2, §3

[17] = system: barnyardgrass (Echinochloa crus-galli); assay: Test A postemergence, visual plant response rating; details: for Barnyardgrass plant response rating (0 to 100 scale): 500 g ai/ha, postemergence, 0 is no effect, 100 is complete control; for Barnyardgrass plant response rating: Postemergence, 125 g ai/ha, 0 to 100 scale (0 no effect, 100 complete control)
Source text: as §2, §3

Row | Compound | Plant response rating, Rice (0 to 100 scale, 0 is no effect, 100 is complete control) (rice (Oryza sativa)) | Plant response rating, Ducksalad (0 to 100 scale, 0 is no effect, 100 is complete control) [1] | Plant response rating, Sedge, Umbrella (0 to 100 scale, 0 is no effect, 100 is complete control) [2] | Plant response rating, Barnyardgrass (0 to 100 scale, 0 is no effect, 100 is complete control) [3] | Ryegrass, Italian plant response rating [4] | Ryegrass, Italian plant response rating (0 to 100 scale) [4] | Foxtail, Giant plant response rating [5] | Foxtail, Giant plant response rating (0 to 100 scale) [5] | Kochia plant response rating (kochia (Kochia scoparia) [6]) | Kochia plant response rating (0 to 100 scale) (kochia (Kochia scoparia) [6]) | Pigweed plant response rating [7] | Pigweed plant response rating (0 to 100 scale) [7] | Barnyardgrass plant response rating [8] | Barnyardgrass plant response rating (0 to 100 scale) [8] | Wheat plant response rating (0 to 100 scale) [9] | Wheat plant response rating [9] | Galium plant response rating (0 to 100 scale) [10] | Galium plant response rating [10] | Ragweed plant response rating (0 to 100 scale) [11] | Ragweed plant response rating [11] | also measured
1 | CO/N=C(/c1c(OC(C)=O)c(Cl)nn(C)c1=O)c1cccc2ccccc12 [Compound 132] | 0 | 25 | 15 | 0 | 0 | 0 | 40 | 90 | 90 | 90 | 80 | 80 | 70 | 80 | 0 | 0 | 100 | 90 | 90 | 90 | Ryegrass, Italian plant response rating (0 to 100 scale) [12]: 20; Ryegrass, Italian plant response rating [12]: 10; Foxtail, Giant plant response rating (0 to 100 scale) [13]: 60; Foxtail, Giant plant response rating [13]: 40; Corn plant response rating (0 to 100 scale) (corn (Zea mays)): 10; Corn plant response rating (corn (Zea mays)): 10; Kochia plant response rating (0 to 100 scale) (kochia (Kochia scoparia) [14]): 80; Kochia plant response rating (kochia (Kochia scoparia) [14]): 60; Pigweed plant response rating (0 to 100 scale) [15]: 70; Pigweed plant response rating [15]: 40; Blackgrass plant response rating (0 to 100 scale) [16]: 60; Blackgrass plant response rating [16]: 40; Barnyardgrass plant response rating (0 to 100 scale) [17]: 60; Barnyardgrass plant response rating [17]: 20
2 | Cc1nn(C)c(=O)c(/C(=N\OC(C)C)c2ccc(F)c3ccccc23)c1O [Compound 89] | 0 | 0 | 0 | 0 | 90 | 100 | 90 | 100 | 60 | 90 | 100 | 100 | 70 | 100 | 70 | 50 | 90 | 90 | 90 | 90 | Ryegrass, Italian plant response rating (0 to 100 scale) [12]: 100; Ryegrass, Italian plant response rating [12]: 100; Foxtail, Giant plant response rating (0 to 100 scale) [13]: 80; Foxtail, Giant plant response rating [13]: 70; Corn plant response rating (0 to 100 scale) (corn (Zea mays)): 30; Corn plant response rating (corn (Zea mays)): 20; Kochia plant response rating (0 to 100 scale) (kochia (Kochia scoparia) [14]): 80; Kochia plant response rating (kochia (Kochia scoparia) [14]): 70; Pigweed plant response rating (0 to 100 scale) [15]: 100; Pigweed plant response rating [15]: 80; Blackgrass plant response rating (0 to 100 scale) [16]: 100; Blackgrass plant response rating [16]: 90; Barnyardgrass plant response rating (0 to 100 scale) [17]: 60; Barnyardgrass plant response rating [17]: 40
